Laboratory results: patent US20090069300A1, “ISOQUINOLINYL AND ISOINDOLINYL DERIVATIVES AS HISTAMINE-3 ANTAGONISTS” (Wyeth, priority 2007, published 2009)

Assays:
[1] = molecular target: T1, Human Histamine H3 Receptor (Homo sapiens, UniProt Q9Y5N1); experiment: Methyl histamine binding in human histamine H3 receptor cell line; details: read-out: H3 Binding Ki
T1 construct: expressed in transfected cells; host or cells: HEK293T (stably transfected; membranes prepared from the cells)
Outline: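 Radioligand binding on membranes (10 μg/well) from a human H3 receptor cell line, 1 nM radioligand, 1 h at 30° C. in 50 mM Tris pH 7.5. Nonspecific binding defined with 10 uM clobenpropit, followed by filtration and scintillation counting. IC50 from four-parameter fit, converted to Ki by Cheng-Prusoff.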

T1 sequence (Q9Y5N1 whole entry): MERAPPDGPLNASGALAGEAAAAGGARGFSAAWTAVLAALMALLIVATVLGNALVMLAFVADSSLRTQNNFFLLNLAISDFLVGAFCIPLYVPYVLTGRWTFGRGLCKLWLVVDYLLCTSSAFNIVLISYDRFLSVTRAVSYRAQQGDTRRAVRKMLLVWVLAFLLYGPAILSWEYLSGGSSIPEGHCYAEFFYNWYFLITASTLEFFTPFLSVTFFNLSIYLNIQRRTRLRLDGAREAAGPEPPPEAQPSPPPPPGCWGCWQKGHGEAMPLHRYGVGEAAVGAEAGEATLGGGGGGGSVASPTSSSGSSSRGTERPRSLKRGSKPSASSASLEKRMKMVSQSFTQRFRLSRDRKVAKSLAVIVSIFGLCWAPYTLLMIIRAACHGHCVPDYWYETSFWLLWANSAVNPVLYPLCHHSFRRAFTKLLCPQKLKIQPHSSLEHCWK

## CC(C)NC(=O)c1ccc(Oc2ccc3c(c2)CCN(CCN2CCCC2)C3=O)cc1 [Example 94, N-isopropyl-4-{[1-oxo-2-(2-pyrrolidin-1-ylethyl)-1,2,3,4-tetrahydroisoquinolin-6-yl]oxy}benzamide]
other
  melting point: 223 to 224 °C
[1]
  Ki: < 10 nM

## CS(=O)(=O)c1ccc(-c2ccc3c(c2)CCN(CCN2CCCC2)C3=O)cc1 [Example 135, 6-[4-(methylsulfonyl)phenyl]-2-(2-pyrrolidin-1-ylethyl)-3,4-dihydroisoquinolin-1(2H)-one]
other
  melting point: 153 to 155 °C
[1]
  Ki: < 10 nM

## C[C@@H]1CCCN1CCN1Cc2cc(-c3ccc(C(=O)N4CCCC4)cc3)ccc2C1=O [Example 119, 2-{2-[(2R)-2-methylpyrrolidin-1-yl]ethyl}-5-[4-(pyrrolidin-1-ylcarbonyl)phenyl]-isoindolin-1-one]
other
  melting point: 184 to 185 °C
[1]
  Ki: > 100 nM

## O=C1c2ccc(-n3ncc4ccccc43)cc2CCN1CCN1CCCC1 [Example 36, 6-(1H-indazol-1-yl)-2-(2-(pyrrolidin-1-yl)ethyl)-3,4-dihydroiso-quinolin-1(2H)-one hydrochlroride]
other
  melting point: 185 to 186 °C
[1]
  Ki: < 10 nM

## Fc1ccc(-c2ccc3c(c2)CCN(CCN2CCCCC2)C3)cc1 [Example 174, 6-(4-fluorophenyl)-2-(2-piperidin-1-ylethyl)-1,2,3,4-tetrahydroisoquinoline]
other
  melting point: 272 to 274 °C
[1]
  Ki: 50.1 to 100 nM

## O=C(NC1CC1)c1ccc(Oc2ccc3c(c2)CCN(CCN2CCCC2)C3=O)cc1 [Example 99, N-cyclopropyl-4-{[1-oxo-2-(2-pyrrolidin-1-ylethyl)-1,2,3,4-tetrahydroisoquinolin-6-yl]oxy}benzamid;e]
other
  melting point: 227 to 228 °C
[1]
  Ki: < 10 nM

## C[C@@H]1CCCN1CCN1Cc2cc(-c3ccc(C#N)cc3)ccc2C1=O [Example 117, (R)-4-(2-(2-(2-methylpyrrolidin-1-yl)ethyl)-1-oxoisoindolin-5-yl)benzonitrile]
other
  melting point: 214 to 216 °C
[1]
  Ki: 10.1 to 25 nM

## C[C@@H]1CCCN1CCN1CCc2cc(-c3ccc(F)cc3)ccc2C1 [Example 172, 6-(4-fluorophenyl)-2-{2-[(2R)-2-methylpyrrolidin-1-yl]ethyl}-1,2,3,4-tetrahydroisoquinoline]
other
  melting point: 232 to 234 °C
[1]
  Ki: 25.1 to 50 nM

## Fc1ccc(-c2ccc3c(c2)CCN(CCN2CCCCCC2)C3)cc1 [Example 175, 2-(2-azepan-1-ylethyl)-6-(4-fluorophenyl)-1,2,3,4-tetrahydroisoquinoline]
other
  melting point: 258 to 260 °C
[1]
  Ki: > 100 nM

## O=C(c1ccc(-c2ccc3c(c2)CCN(CCN2CCCC2)C3=O)cc1)C1CC1 [Example 103, 6-[4-(cyclopropylcarbonyl)phenyl]-2-(2-pyrrolidin-1-ylethyl)-3,4-dihydro-isoquinolin-1(2H)-one]
other
  melting point: 244 to 246 °C
[1]
  Ki: < 10 nM

## c1cc2c(cc1-c1ccc3c(c1)OCO3)CCN(CCN1CCCC1)C2 [Example 176, 6-(1,3-benzodioxol-5-yl)-2-(2-pyrrolidin-1-ylethyl)-1,2,3,4-tetrahydroisoquinoline]
other
  melting point: 257 to 259 °C
[1]
  Ki: 50.1 to 100 nM

## O=C(c1ccc(-c2ccc3c(c2)CCN(CCN2CCCC2)C3=O)cc1F)N1CCCC1 [Example 133, 6-[3-fluoro-4-(pyrrolidin-1-ylcarbonyl)phenyl]-2-(2-pyrrolidin-1-ylethyl)-3,4-dihydroisoquinolin-1(2H)-one]
other
  melting point: 231 to 232 °C
[1]
  Ki: < 10 nM

## FC(F)(F)Oc1ccc(-c2ccc3c(c2)CCN(CCN2CCCC2)C3)cc1 [Example 171, 2-(2-pyrrolidin-1-ylethyl)-6-[4-(trifluoromethoxy)phenyl]-1,2,3,4-tetrahydroisoquinoline]
other
  melting point: > 230 °C
[1]
  Ki: > 100 nM

## O=C(NC1CCCC1)c1ccc(-c2ccc3c(c2)CCN(CCN2CCCC2)C3=O)cc1 [Example 55, N-cyclopentyl-4-[1-oxo-2-(2-pyrrolidin-1-ylethyl)-1,2,3,4-tetrahydroisoquinolin-6-yl]benzamide]
other
  melting point: 258 to 260 °C
[1]
  Ki: < 10 nM

## CCNC(=O)c1ccc(Oc2ccc3c(c2)CCN(CCN2CCCC2)C3=O)cc1 [Example 93, N-ethyl-4-{[1-oxo-2-(2-pyrrolidin-1-ylethyl)-1,2,3,4-tetrahydroisoquinolin-6-yl]oxy}benzamide]
other
  melting point: 215 to 216 °C
[1]
  Ki: < 10 nM

## CNC(=O)c1ccc(Oc2ccc3c(c2)CCN(CCN2CCCC2)C3=O)cc1 [Example 92, N-methyl-4-{[1-oxo-2-(2-pyrrolidin-1-ylethyl)-1,2,3,4-tetrahydroisoquinolin-6-yl]oxy}benzamide]
other
  melting point: 235 to 236 °C
[1]
  Ki: 10.1 to 25 nM

## Fc1cccc(-c2ccc3c(c2)CCN(CCN2CCCC2)C3)c1 [Example 173, 6-(3-fluorophenyl)-2-(2-pyrrolidin-1-ylethyl)-1,2,3,4-tetrahydroisoquinoline]
other
  melting point: 272 to 274 °C
[1]
  Ki: 50.1 to 100 nM

## O=C(NC1CCC1)c1ccc(Oc2ccc3c(c2)CCN(CCN2CCCC2)C3=O)cc1 [Example 97, N-cyclobutyl-4-{[1-oxo-2-(2-pyrrolidin-1-ylethyl)-1,2,3,4-tetrahydroisoquinolin-6-yl]oxy}benzamide]
other
  melting point: 236 to 237 °C
[1]
  Ki: 10.1 to 25 nM
